Data set [1] can be described thus: MTT cytotoxicity on normal human skin keratinocytes. To be noted: normal human epidermal keratinocytes.
Procedure: (§1) To make sure the peptides are not cytotoxic to the cells, normal human epidermal keratinocytes were seeded to a 96-well plate. The plate was incubated at 37° C. in the presence of 5% CO2 to allow the cells to grow to >95% confluent. Peptides are diluted into stock solutions at concentrations of 50, 100, 200, and 500 μg/ml. The cell culture media are replaced with fresh media containing peptides at various concentrations then incubated at 37° C. and 5% CO2 for 24 hr. At the end of treatment the cell viability was measured using MTT assay kit purchased from ATCC (Manassas Va.).
Data set [2] is described as follows: in vitro. Particulars: human, normal human epidermal keratinocytes.
Procedure: as §1
Data set [3] deals with wound repair in a murine model. To be noted: cited from earlier work.

These results are taken from patent US9487558B2, “Short bio-active peptides for promoting wound healing” (HELIX BIOMEDIX, INC., priority 2013, dated 2016).

Ends that are not written are not given here. Peptide text beside a SMILES is read from it.

The compound `CC[C@H](C)[C@H](NC(=O)[C@@H](N)CCCCN)C(=O)N[C@@H](CCC(=O)O)C(=O)N[C@@H](CCCCN)C(=O)O` [HB2232, KIEK] (H-KIEK-OH) gave a CC50 at 24 h in data set [1] above 500 µg/mL. The same measure, in the same setting: the same measure for `CSCC[C@H](NC(=O)[C@H](CCCCN)NC(=O)[C@@H](N)CCC(=O)O)C(=O)NCC(=O)O` [HB2234, EKMG] (H-EKMG-OH): above 500 µg/mL. Same read-out and setting: the result for `CSCC[C@H](N)C(=O)NCC(=O)N[C@@H](CCCNC(=N)N)C(=O)N[C@@H](CC(N)=O)C(=O)O` [HB2235, MGRN] (H-MGRN-OH) reads above 500 µg/mL.

For `CSCC[C@H](NC(=O)[C@@H](N)CCCCN)C(=O)NCC(=O)O` [HB2268, KMG] (H-Lys-Met-Gly-OH), the CC50 at 24 h in data set [2] was above 500 µg/mL.

In data set [1], `N=C(N)NCCC[C@H](NC(=O)CN)C(=O)N[C@@H](CC(N)=O)C(=O)O` [HB2269, GRN] (H-Gly-Arg-Asn-OH) returned a CC50 at 24 h above 500 µg/mL. On the same count and under the same terms, the same measure for EKMGR [HB2263, EKMGR]: above 500 µg/mL; for EKMGRN [HB2265, EKMGRN]: above 500 µg/mL; for GRNIRN [HB1062, GRNIRN]: above 500 µg/mL. Same read-out and setting: the same measure for KMGRN [HB2262, KMGRN]: above 500 µg/mL. Turning to “MPKEKVFLKIEKMGRNIRN (Peptide HB107) [non-antimicrobial host defense peptide derived from cecropin B]”, the “Benefit in wound repair” value in data set [3] (murine model, compared with growth factor rhPDGF) was “indistinguishable from the wound treated with growth factor rhPDGF”. For the same compound, the “Epidermal hyperplasia (histological analysis of treated wounds)” value in data set [3] (murine wounds) is listed as “increased”.
